Assay [1] relates to nitrification in sandy loam soil (soil microbial biomass). Nature of the assay: Soil incubation with simulated drip irrigation: NH4 recovery and nitrification inhibition. The conditions noted are these: for % NH4 recovery of applied NH4: 20° C., ammonium sulfate; for % nitrification inhibition: calculated according to equation 1. Here is the method: (§1) In the examples a standardized sandy loam soil with coarse and very light texture was used.
For each test, three 500 ml plastic bottles were filled with 100 g of air dried soil each. Soil was moistened with deionized water to 50% of its water holding capacity. Then, the soil was incubated for two weeks at 20° C. to activate the microbial biomass. Ammonium sulfate was dissolved in deionized water in an amount corresponding to a nitrogen concentration of 10 g/L and supplemented by the desired amount of nitrogen inhibitor in an amount given in table 1. To each bottle 1 ml of the test solution was added by dripping the test solution with a pipette to the soil to simulate drop irrigation. Bottles were loosely capped to avoid contamination by dirt but to allow air exchange. The bottles were incubated at 20° C. for 0 to 42 days.
For determining the nitrogen content in the soil after incubation, to each bottle 300 mL of a 1% by weight solution of potassium sulfate in deionized water was added and the bottle was shaken for 2 h in a horizontal shaker at 150 rpm. Then the whole content of the bottle was filtered through a paper filter (MN 807 of Macherey-Nagel) and the filtrate was analyzed photometrically at 550 nm with respect to ammonium and nitrate by means of an auto analyzer AA11 of Merck.
Inhibition of nitrification was calculated by the following equation 1 (Bohland equation, DD 123771):
N (NO3) 1=Concentration of nitrogen contributed by NO3 without NI at the end of incubation
N (NO3) […]=Concentration of nitrogen contributed by NO3 with NI at the end of incubation
N (NO3) […]=Concentration of nitrogen contributed by NO3 at the beginning of incubation
The Examples were carried out in two separate series 1 and 2. All results are averages of 3 replications.

Assay [2] relates to nitrification in sandy loam soil. Nature of the assay: Leaching experiment in soil column with simulated drip irrigation. The conditions noted are these: AS 90 mg N; NI/N (NH4) 0.8%; 9 days at 20° C., then about 43 mm precipitation; lower value = better inhibition. As to the method: as §1
100 g of air dried soil was filled in a 150 mL free draining column made of glass. Soil was moistened with deionized water to 50% of its water holding capacity. Then, the filled column was incubated for 24 h at 20° C. A solution of ammonium sulfate and optionally the nitrogen inhibitor in deionized water was deposited on the soil by means of a pipette to simulate drip irrigation. The amount of ammonium sulfate corresponds to 90 mg of nitrogen (N). The columns were then incubated for 9 days at 20° C. Then, deionized water was dripped to the soil corresponding to a precipitation of about 43 mm. Thereafter, the water was removed from the soil by applying a negative pressure until the moisture in the soil was 50% of its water holding capacity. The removed water (percolate) was collected and analyzed with regard to the total quantity of inorganic nitrogen (NH4 and NO3) as described for example 1. Since NH4 is more strongly bound to the soil compared to NO3 a lower nitrogen value indicates a better inhibition of nitrification.

[3] abbreviates: first series, DAT14, NI/N (NH4) 10%.
[4] abbreviates: first series, DAT28, NI/N (NH4) 10%.
Where [5] appears, read: first series, DAT42, NI/N (NH4) 10%.
The mark [6] stands for this setting: second series, DAT7, NI/N (NH4) 0.8%.
Where [7] appears, read: second series, DAT14, NI/N (NH4) 0.8%.
[8] abbreviates: second series, DAT28, NI/N (NH4) 0.8%.
Setting [9] is: second series, DAT42, NI/N (NH4) 0.8%.
[10] abbreviates: first series, DAT14, NI/N (NH4) 0.8%.
Setting [11] is: first series, DAT28, NI/N (NH4) 0.8%.
Where [12] appears, read: first series, DAT42, NI/N (NH4) 0.8%.
Where [13] appears, read: second series, DAT7, NI/N (NH4) 0.4%.
[14] abbreviates: second series, DAT14, NI/N (NH4) 0.4%.
Setting [15] is: second series, DAT28, NI/N (NH4) 0.4%.
Where [16] appears, read: second series, DAT42, NI/N (NH4) 0.4%.

With `N#CN=C(N)N` [DCD, dicyandiamide], the results for the “% NH4 recovery of applied NH4” value in assay [1] (setting [3]), in assay [1] (setting [4]) and in assay [1] (setting [5]) were 63%, 13% and 0%, respectively. Also, the figures for the “% nitrification inhibition” value in assay [1] (setting [3]), in assay [1] (setting [4]) and in assay [1] (setting [5]) were 59%, 15% and 3%, respectively.
On to `Cc1c[nH]nc1C.O=P(O)(O)O` [DMPP, 3,4-dimethyl pyrazole phosphate], for which the “Total N: total quantity of inorganic nitrogen (NH4 and NO3) in percolate” value (shortened to “Total N: total quantity”) in assay [2] was 6.3 mg. Further, the “% NH4 recovery of applied NH4” value in assay [1] (setting [6]) was 75%; in assay [1] (setting [7]) it was 71%; in assay [1] (setting [8]), 64%; in assay [1] (setting [9]), 66%. Further, the “% nitrification inhibition” value in assay [1] (setting [6]) was 70%; in assay [1] (setting [7]), 76%; in assay [1] (setting [8]), 66%; in assay [1] (setting [9]), 61%.
For `Clc1cccc(C(Cl)(Cl)Cl)n1` [Nitrapyrin, 2-chloro-6-(trichloromethyl)pyridine], the “Total N: total quantity” value in assay [2] is 7.1 mg. The “% NH4 recovery of applied NH4” value in assay [1] (setting [10]) is recorded as 31%; in assay [1] (setting [11]), 3%; in assay [1] (setting [12]), 0%. For the same compound, the “% nitrification inhibition” value in assay [1] (setting [10]) is listed as 33%; in assay [1] (setting [11]) it was 4%; in assay [1] (setting [12]), −2%.
As to “2-(3,4-dimethyl-1H-pyrazol-1-yl)succinic acid and 2-(4,5-dimethyl-1H-pyrazol-1-yl)succinic acid [DMPSA]”, the “Total N: total quantity” value in assay [2] is 6.0 mg. Also, the “inhibition of nitrification in drip irrigation compared to DCD and Nitrapyrin” value in assay [1] (conclusion from tables 1 and 2) is “longer and stronger inhibition of nitrification”. For the same compound, the “% NH4 recovery of applied NH4” value in assay [1] (setting [10]) is recorded as 82%; in assay [1] (setting [11]), 48%; in assay [1] (setting [12]), 27%; in assay [1] (setting [13]), 82%; in assay [1] (setting [14]), 73%; in assay [1] (setting [15]), 61%. Moreover, in assay [1] (setting [16]), the “% NH4 recovery of applied NH4” value is on record as 63%. Besides, the “% nitrification inhibition” value in assay [1] (setting [10]) was 74%; in assay [1] (setting [11]), 59%; in assay [1] (setting [12]), 34%; in assay [1] (setting [13]), 76%; in assay [1] (setting [14]), 75%; in assay [1] (setting [15]) it was 66%. In addition, the “% nitrification inhibition” value in assay [1] (setting [16]) is 56%. In addition, the “effectiveness relative to DMPP” value in assay [1] (half amount of DMPSA gives comparable nitrification inhibition) was “almost twice effective as DMPP”.

The values are drawn from patent publication US20220142161A1, “METHOD OF IMPROVING THE GROWTH AND/OR THE YIELD OF PLANTS GROWN ON AGRICULTURALLY OR HORTICULTURALLY UTILIZED SUBSTRATES BY APPLYING A NITRICATION INHIBITOR ADDED TO THE IRRIGATION SYSTEM” (BASF SE, priority 2019, published 2022).
